Test results reported in publication PMC10518257 (Nature Cancer, 2023).

Columns and labels:
Experiment in all cases: Kinase selectivity profiling at a single concentration (Carna Biosciences)
Assay type in all cases: biochemical
[1] = molecular target: T1, panel of 255 (vepafestinib) or 256 (all other inhibitors) recombinant kinases (Homo sapiens, UniProt O60674); settings: 17 nM
T1 construct: purchased Carna Biosciences

[2] = molecular target: T2, panel of 255 (vepafestinib) or 256 (all other inhibitors) recombinant kinases (Homo sapiens, UniProt P07947); settings: 17 nM
T2 construct: purchased Carna Biosciences

[3] = molecular target: T3, panel of 255 (vepafestinib) or 256 (all other inhibitors) recombinant kinases (Homo sapiens, UniProt P08922); settings: 17 nM
T3 construct: purchased Carna Biosciences

[4] = molecular target: T4, panel of 255 (vepafestinib) or 256 (all other inhibitors) recombinant kinases (Homo sapiens, UniProt P23458); settings: 17 nM
T4 construct: purchased Carna Biosciences

[5] = molecular target: T5, panel of 255 (vepafestinib) or 256 (all other inhibitors) recombinant kinases (Homo sapiens, UniProt Q16288); settings: 17 nM
T5 construct: purchased Carna Biosciences
T5 sequence (Q16288 32-839): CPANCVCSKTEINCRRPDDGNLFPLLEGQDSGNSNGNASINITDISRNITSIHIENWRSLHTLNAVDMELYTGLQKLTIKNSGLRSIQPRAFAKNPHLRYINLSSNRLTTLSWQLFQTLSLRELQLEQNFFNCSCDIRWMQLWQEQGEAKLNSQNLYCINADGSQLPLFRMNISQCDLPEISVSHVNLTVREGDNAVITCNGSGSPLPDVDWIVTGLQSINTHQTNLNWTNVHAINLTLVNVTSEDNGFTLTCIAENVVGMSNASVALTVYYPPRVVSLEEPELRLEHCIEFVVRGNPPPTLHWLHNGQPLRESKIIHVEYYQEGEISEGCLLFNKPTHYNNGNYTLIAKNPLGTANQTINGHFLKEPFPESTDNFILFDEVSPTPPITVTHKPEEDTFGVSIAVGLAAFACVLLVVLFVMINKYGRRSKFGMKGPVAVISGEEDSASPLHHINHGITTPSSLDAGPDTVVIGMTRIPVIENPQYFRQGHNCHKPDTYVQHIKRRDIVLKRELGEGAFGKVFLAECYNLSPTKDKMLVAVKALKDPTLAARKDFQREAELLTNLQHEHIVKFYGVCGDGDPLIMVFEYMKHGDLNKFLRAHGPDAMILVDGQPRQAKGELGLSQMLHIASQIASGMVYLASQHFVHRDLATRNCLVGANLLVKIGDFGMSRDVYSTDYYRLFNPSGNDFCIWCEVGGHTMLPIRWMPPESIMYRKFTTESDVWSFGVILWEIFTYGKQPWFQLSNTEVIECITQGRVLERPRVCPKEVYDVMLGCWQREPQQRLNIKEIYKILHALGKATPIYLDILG

[6] = molecular target: T6, panel of 255 (vepafestinib) or 256 (all other inhibitors) recombinant kinases (Homo sapiens, UniProt P17948); settings: 22 nM
T6 construct: purchased Carna Biosciences

[7] = molecular target: T7, panel of 255 (vepafestinib) or 256 (all other inhibitors) recombinant kinases (Homo sapiens, UniProt P30530); settings: 22 nM
T7 construct: purchased Carna Biosciences
T7 sequence (P30530 26-894): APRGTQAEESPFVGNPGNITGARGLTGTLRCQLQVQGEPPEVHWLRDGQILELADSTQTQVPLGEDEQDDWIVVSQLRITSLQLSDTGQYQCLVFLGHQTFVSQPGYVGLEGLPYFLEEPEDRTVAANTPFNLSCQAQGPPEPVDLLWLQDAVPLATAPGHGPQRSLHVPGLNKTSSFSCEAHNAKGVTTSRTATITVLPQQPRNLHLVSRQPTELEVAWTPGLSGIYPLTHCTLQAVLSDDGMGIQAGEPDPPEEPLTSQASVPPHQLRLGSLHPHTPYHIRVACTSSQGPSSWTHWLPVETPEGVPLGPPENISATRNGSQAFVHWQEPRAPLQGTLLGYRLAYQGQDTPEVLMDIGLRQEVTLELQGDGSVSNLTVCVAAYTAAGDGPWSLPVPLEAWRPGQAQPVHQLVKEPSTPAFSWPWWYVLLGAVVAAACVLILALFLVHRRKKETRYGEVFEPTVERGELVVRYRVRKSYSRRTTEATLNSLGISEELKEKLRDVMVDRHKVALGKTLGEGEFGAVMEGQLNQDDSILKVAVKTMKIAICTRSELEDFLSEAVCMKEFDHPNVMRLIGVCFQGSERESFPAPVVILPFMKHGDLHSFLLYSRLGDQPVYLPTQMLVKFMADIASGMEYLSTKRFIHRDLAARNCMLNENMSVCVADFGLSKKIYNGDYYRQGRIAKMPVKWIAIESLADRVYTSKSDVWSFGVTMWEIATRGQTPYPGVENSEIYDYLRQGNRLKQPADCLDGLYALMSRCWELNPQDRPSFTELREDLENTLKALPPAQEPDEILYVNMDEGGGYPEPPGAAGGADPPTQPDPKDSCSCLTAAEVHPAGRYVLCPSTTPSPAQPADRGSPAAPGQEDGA

[8] = molecular target: T8, panel of 255 (vepafestinib) or 256 (all other inhibitors) recombinant kinases (Homo sapiens, UniProt P54762); settings: 22 nM
T8 construct: purchased Carna Biosciences
T8 sequence (P54762 18-984): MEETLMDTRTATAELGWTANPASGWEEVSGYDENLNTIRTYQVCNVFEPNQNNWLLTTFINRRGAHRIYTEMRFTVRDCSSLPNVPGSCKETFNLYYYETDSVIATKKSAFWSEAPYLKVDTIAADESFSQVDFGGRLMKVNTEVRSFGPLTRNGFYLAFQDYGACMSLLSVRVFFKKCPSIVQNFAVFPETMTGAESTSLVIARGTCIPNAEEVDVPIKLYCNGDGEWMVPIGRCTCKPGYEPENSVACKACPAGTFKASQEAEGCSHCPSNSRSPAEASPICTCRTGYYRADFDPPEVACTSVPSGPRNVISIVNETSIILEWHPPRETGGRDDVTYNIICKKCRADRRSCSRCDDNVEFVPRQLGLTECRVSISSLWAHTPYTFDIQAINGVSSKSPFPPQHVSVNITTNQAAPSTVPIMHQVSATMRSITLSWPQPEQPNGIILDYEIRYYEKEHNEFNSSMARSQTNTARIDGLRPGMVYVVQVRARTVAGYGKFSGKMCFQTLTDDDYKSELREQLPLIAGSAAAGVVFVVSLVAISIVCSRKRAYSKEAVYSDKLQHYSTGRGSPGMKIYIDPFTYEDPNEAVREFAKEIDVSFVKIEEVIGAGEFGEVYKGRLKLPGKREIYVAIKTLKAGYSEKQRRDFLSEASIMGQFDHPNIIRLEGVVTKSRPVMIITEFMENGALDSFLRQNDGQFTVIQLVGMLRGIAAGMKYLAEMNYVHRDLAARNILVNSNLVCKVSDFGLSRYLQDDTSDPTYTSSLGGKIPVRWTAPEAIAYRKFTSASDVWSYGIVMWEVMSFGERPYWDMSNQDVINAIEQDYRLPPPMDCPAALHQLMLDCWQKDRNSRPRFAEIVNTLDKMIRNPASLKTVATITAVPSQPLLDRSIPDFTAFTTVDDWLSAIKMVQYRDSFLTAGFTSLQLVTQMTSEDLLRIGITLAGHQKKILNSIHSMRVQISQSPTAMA

[9] = molecular target: T9, panel of 255 (vepafestinib) or 256 (all other inhibitors) recombinant kinases (Homo sapiens, UniProt Q92630); settings: 22 nM
T9 construct: purchased Carna Biosciences

[10] = molecular target: T10, panel of 255 (vepafestinib) or 256 (all other inhibitors) recombinant kinases (Homo sapiens, UniProt Q9UF33); settings: 22 nM
T10 construct: purchased Carna Biosciences
T10 sequence (Q9UF33 23-1036): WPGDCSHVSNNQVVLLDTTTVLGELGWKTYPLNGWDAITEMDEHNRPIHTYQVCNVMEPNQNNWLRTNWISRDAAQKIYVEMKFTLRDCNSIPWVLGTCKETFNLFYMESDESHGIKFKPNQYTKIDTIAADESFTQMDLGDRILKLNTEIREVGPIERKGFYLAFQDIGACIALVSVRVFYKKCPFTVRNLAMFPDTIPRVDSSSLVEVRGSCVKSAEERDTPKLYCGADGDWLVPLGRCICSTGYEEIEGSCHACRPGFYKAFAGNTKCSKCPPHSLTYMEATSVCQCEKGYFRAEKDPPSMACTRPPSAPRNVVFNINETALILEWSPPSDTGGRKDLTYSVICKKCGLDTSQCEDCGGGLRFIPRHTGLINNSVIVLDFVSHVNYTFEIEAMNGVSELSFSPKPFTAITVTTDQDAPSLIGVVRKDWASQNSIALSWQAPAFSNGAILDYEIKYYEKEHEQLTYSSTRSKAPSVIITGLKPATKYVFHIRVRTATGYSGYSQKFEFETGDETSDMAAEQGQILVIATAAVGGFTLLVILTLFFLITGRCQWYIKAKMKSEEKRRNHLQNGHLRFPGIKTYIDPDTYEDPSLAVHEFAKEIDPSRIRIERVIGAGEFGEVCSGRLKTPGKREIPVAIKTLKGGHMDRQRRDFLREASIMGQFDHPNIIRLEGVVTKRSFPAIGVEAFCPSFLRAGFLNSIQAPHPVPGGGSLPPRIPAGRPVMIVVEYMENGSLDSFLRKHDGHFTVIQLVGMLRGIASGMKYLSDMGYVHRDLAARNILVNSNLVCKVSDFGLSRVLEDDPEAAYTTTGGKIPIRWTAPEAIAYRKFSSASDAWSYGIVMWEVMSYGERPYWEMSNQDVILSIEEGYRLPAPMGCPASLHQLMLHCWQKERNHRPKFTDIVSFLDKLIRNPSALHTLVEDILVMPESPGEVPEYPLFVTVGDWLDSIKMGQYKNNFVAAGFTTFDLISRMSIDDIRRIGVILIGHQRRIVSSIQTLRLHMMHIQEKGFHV

T1 sequence (O60674 whole entry): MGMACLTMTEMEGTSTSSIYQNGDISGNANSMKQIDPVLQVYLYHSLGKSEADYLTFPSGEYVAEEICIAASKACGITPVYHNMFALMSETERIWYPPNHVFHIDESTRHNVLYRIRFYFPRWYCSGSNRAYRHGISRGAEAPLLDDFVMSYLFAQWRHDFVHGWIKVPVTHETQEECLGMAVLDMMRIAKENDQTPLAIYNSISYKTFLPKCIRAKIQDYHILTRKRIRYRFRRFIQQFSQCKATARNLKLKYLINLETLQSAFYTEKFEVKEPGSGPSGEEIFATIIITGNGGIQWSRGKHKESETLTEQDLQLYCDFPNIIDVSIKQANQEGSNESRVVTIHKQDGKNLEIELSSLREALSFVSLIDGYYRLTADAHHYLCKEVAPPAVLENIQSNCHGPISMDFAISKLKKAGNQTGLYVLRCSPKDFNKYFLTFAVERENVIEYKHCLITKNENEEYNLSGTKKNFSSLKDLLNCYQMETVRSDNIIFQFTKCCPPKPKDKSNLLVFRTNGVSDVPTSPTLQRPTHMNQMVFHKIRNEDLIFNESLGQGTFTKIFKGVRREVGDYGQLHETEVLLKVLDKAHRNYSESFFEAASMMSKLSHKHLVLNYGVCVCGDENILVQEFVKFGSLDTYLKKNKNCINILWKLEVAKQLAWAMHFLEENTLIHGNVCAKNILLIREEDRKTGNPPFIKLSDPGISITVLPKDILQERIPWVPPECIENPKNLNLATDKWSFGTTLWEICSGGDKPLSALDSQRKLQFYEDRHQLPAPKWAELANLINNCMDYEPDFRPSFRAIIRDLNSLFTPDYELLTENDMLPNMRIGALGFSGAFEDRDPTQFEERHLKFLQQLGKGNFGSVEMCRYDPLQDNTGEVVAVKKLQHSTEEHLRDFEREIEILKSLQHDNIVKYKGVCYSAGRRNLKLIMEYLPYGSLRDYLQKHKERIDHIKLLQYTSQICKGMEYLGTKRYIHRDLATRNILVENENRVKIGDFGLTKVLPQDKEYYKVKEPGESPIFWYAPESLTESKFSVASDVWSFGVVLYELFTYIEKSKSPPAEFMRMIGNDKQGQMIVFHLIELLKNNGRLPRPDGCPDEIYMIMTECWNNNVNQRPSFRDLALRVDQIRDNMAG

CO[C@]1(C(=O)N[C@@H](C)c2ccc(-n3cc(F)cn3)nc2)CC[C@H](c2nc(C)cc(Nc3cc(C)[nH]n3)n2)CC1 [Pralsetinib]
% Inhibiton JAK2 [1]: 101.5% | % Inhibiton YES [2]: 37.6% | % Inhibiton ROS [3]: 40% | % Inhibiton JAK1 [4]: 89.1% | % Inhibiton TRKC [5]: 57.7%

COc1ccc(CN2C3CC2CN(c2ccc(-c4cc(OCC(C)(C)O)cn5ncc(C#N)c45)cn2)C3)cn1 [Selpercatinib]
% Inhibiton FLT1 [6]: 45.4% | % Inhibiton AXL [7]: 18.1% | % Inhibiton EPHB1 [8]: 36.2% | % Inhibiton DYRK2 [9]: 17.3% | % Inhibiton EPHA6 [10]: 17.3%
